Results: patent US10294202B2, “Pyrrolidinones as herbicides” (FMC Corporation, priority 2013, dated 2019)
Like-named read-outs stand apart in the source and are kept apart here.

How the values were obtained:
giant foxtail = assay: Test A pre-/postemergence herbicide test; type: in vivo, Setaria faberii; conditions: for Foxtail, Giant plant response rating: Preemergence, visual rating on 0 to 100 scale (0 no effect, 100 complete control); for pest or weed control at 125 g/ha / pest or weed control at 500 g/ha: Setaria faberi, 240 h, read-out: Plant response rating, Foxtail, Giant
Summary of the method: (§1)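 Seeds in loam–sand blend received preemergence directed soil spray; separately, plants 2–10 cm at one- to two-leaf stage received postemergence spray, both with test chemicals in non-phytotoxic solvent with surfactant. After ~10 days in greenhouse, injury rated visually against untreated controls, 0 (no effect) to 100 (complete control).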

pigweed [1] = assay: Test A pre-/postemergence herbicide test; type: in vivo, Amaranthus retroflexus; conditions: for pest or weed control at 125 g/ha / pest or weed control at 500 g/ha: Amaranthus retroflexus, 240 h, read-out: Plant response rating, Pigweed; for Pigweed plant response rating: Preemergence, visual rating on 0 to 100 scale (0 no effect, 100 complete control)
Summary of the method: as §1

corn = assay: Test A pre-/postemergence herbicide test; type: in vivo, Zea mays; conditions: for Corn plant response rating: Preemergence, visual rating on 0 to 100 scale (0 no effect, 100 complete control); for Corn plant response rating (crop injury, 0 = no effect, 100 = complete kill) at 125 g/ha / Corn plant response rating (crop injury, 0 = no effect, 100 = complete kill) at 500 g/ha: Zea mays, 240 h
Summary of the method: as §1

ryegrass, Italian = assay: Test C pre-/postemergence herbicide test; type: in vivo, Lolium multiflorum; conditions: Preemergence
Source text: (§2) Seeds of plant species selected from blackgrass (Alopecurus myosuroides), ryegrass, Italian (Italian ryegrass, Lolium multiflorum), wheat (winter wheat, Triticum aestivum), galium (catchweed bedstraw, Galium aparine), corn (Zea mays), crabgrass, large (large crabgrass, Digitaria sanguinalis), foxtail, giant (giant foxtail, Setaria faberii), johnsongrass (Sorghum halepense), lambsquarters (Chenopodium album), morningglory (Ipomoea coccinea), nutsedge, yellow (yellow nutsedge, Cyperus esculentus), pigweed (Amaranthus retroflexus), ragweed (common ragweed, Ambrosia elatior), soybean (Glycine max), barnyardgrass (Echinochloa crus-galli), oilseed rape (Brassica napus), waterhemp (common waterhemp, Amaranthus rudis), kochia (Kochia scoparia), oat, wild (wild oat, Avena fatua), surinam grass (Brachiaria decumbens), foxtail, green (green foxtail, Setaria viridis), goosegrass (Eleusine indica), bromegrass, downy (downy bromegrass, Bromus tectorum), nightshade (eastern black nightshade, Solanum ptycanthum), cocklebur (common cocklebur, Xanthium strumarium), cupgrass, woolly (woolly cupgrass, Eriochloa villosa), bermudagrass (Cynodon dactylon), sunflower, (common oilseed sunflower, Helianthus annuus), Russian thistle (Salsola kali) and velvetleaf (Abutilon theophrasti) were planted into a blend of loam soil and sand and treated preemergence with test chemicals formulated in a non-phytotoxic solvent mixture which included a surfactant. At the same time, plants selected from these crop and weed species and also barley (winter barley, Hordeum vulgare), […]), chickweed (common chickweed, Stellaria media), deadnettle (henbit deadnettle, Lamium amplexicaule), and canarygrass (littleseed canarygrass, Phalaris minor) were planted in pots containing Redi-Earth® planting medium (Scotts Company, 14111 Scottslawn Road, Marysville, Ohio 43041) comprising spaghnum peat moss, vermiculite, wetting agent and starter nutrients and treated with postemergence applications of test chemicals formulated in the same manner. Plants ranged in height from 2 to 18 cm (1- to 4-leaf stage) for postemergence treatments. Treated plants and controls were maintained in a greenhouse for 13 to 15 days, after which time all species were compared to controls and visually evaluated. Plant response ratings, summarized in Table C, are based on a scale of 0 to 100 where 0 is no effect and 100 is complete control. A dash (-) response means no test result.

galium = assay: Test C pre-/postemergence herbicide test; type: in vivo, Galium aparine; conditions: Preemergence
Source text: as §2

johnsongrass = assay: Test C pre-/postemergence herbicide test; type: in vivo, Sorghum halepense; conditions: Preemergence
Source text: as §2

nutsedge, yellow = assay: Test C pre-/postemergence herbicide test; type: in vivo, Cyperus esculentus; conditions: Preemergence
Source text: as §2

pigweed [2] = assay: Test C pre-/postemergence herbicide test; type: in vivo, Amaranthus retroflexus; conditions: Preemergence
Source text: as §2

ragweed = assay: Test C pre-/postemergence herbicide test; type: in vivo, Ambrosia elatior; conditions: Preemergence
Source text: as §2

[3] = post-emergence, Postemergence, 125 g ai/ha, 0 to 100 scale, 0 no effect, 100 complete control
[4] = post-emergence, Postemergence, 500 g ai/ha, 0 to 100 scale (0 no effect, 100 complete control)
[5] = pre-emergence, preemergence, 500 g ai/ha, 0 to 100 scale
[6] = 125 g ai/ha, scale 0 to 100 (0 no effect, 100 complete control)
[7] = Postemergence, 125 g ai/ha, 0 to 100 scale, 0 no effect, 100 complete control
[8] = Postemergence, 500 g ai/ha, 0 to 100 scale (0 no effect, 100 complete control)
[9] = preemergence, 500 g ai/ha, 0 to 100 scale
[10] = 125 g ai/ha, visual rating, 0 to 100 scale, 0 no effect, 100 complete control, approximately 10 days, preemergence
[11] = Postemergence, 125 g ai/ha, 0 to 100 scale, 0 is no effect, 100 is complete control
[12] = preemergence, 500 g ai/ha, 0 to 100 scale, 0 is no effect and 100 is complete control

| Structure (SMILES) | Foxtail, Giant plant response rating (giant foxtail; 125 g ai/ha) | pest or weed control at 125 g/ha (giant foxtail; [3]) [%] | pest or weed control at 500 g/ha (giant foxtail; [4]) [%] | pest or weed control at 500 g/ha (giant foxtail; [5]) [%] | pest or weed control at 125 g/ha (pigweed [1]; [3]) [%] | pest or weed control at 500 g/ha (pigweed [1]; [4]) [%] | pest or weed control at 500 g/ha (pigweed [1]; [5]) [%] | Pigweed plant response rating (pigweed [1]; 125 g ai/ha) | Corn plant response rating (corn; 125 g ai/ha) | Corn plant response rating (crop injury, 0 = no effect, 100 = complete kill) at 125 g/ha (corn; [3]) [%] | Corn plant response rating (crop injury, 0 = no effect, 100 = complete kill) at 500 g/ha (corn; [4]) [%] | Corn plant response rating (crop injury, 0 = no effect, 100 = complete kill) at 500 g/ha (corn; [5]) [%] | also measured |
| --- | --- | --- | --- | --- | --- | --- | --- | --- | --- | --- | --- | --- | --- |
| O=C1NCC(c2ccccc2)C1(Br)C(=O)Nc1ccccc1F (stereo not drawn) [Compound 93, 3-bromo-N-(2-fluorophenyl)-2-oxo-4-phenyl-3-pyrrolidinecarboxamide] | 80 | 10 | 60 | 90 | 0 | 0 | 0 | 0 | 0 | 0 | 0 | 0 | – |
| O=C1NCC(Br)(c2ccccc2)C1C(=O)Nc1ccccc1F (stereo not drawn) [Compound 92, 4-bromo-N-(2-fluorophenyl)-2-oxo-4-phenyl-3-pyrrolidinecarboxamide] | 0 | 0 | 10 | 90 | 0 | 0 | 0 | 0 | 0 | 0 | 0 | 0 | – |
| O=C1NCCC1C(=O)N(c1ccc(F)c(F)c1)c1ccccc1F (stereo not drawn) [Compound 5, N-(3,4-difluorophenyl)-N-(2-fluorophenyl)-2-oxo-3-pyrrolidinecarboxamide] | 90 | 80 | 80 | 100 | – | 0 | 0 | 0 | 0 | 0 | 0 | 0 | Plant response rating, Ryegrass, Italian (ryegrass, Italian; 62 g ai/ha, scale 0 to 100): 0; Plant response rating, Ryegrass, Italian (ryegrass, Italian; [6]): 0; Plant response rating, Galium (galium; 62 g ai/ha, scale 0 to 100): 5; Galium plant response rating (galium; 31 g ai/ha, scale 0 to 100 (0 no effect, 100 complete control)): 0; Plant response rating, Galium (galium; 250 g ai/ha, scale 0 to 100 (0 no effect, 100 complete control)): 40; Plant response rating, Johnsongrass (johnsongrass; 62 g ai/ha, scale 0 to 100): 0; Plant response rating, Johnsongrass (johnsongrass; [6]): 0; Plant response rating, Nutsedge, Yellow (nutsedge, yellow; 62 g ai/ha, scale 0 to 100): 0; Plant response rating, Nutsedge, Yellow (nutsedge, yellow; [6]): 0; Plant response rating, Pigweed (pigweed [2]; 62 g ai/ha, scale 0 to 100): 0; Plant response rating, Pigweed (pigweed [2]; [6]): 0; Plant response rating, Ragweed (ragweed; 62 g ai/ha, scale 0 to 100): 0; Plant response rating, Ragweed (ragweed; [6]): 0 |
| O=C1NCC(c2ccc(F)c(F)c2)C1C(=O)Nc1ccccc1C(F)(F)F (racemic) [Compound 6] | 90 | – | – | – | – | – | – | 0 | 0 | – | – | – | Plant response rating, Foxtail, Giant (giant foxtail; [7]): 70; Plant response rating, Foxtail, Giant (giant foxtail; [8]): 80; Plant response rating, Foxtail, Giant (giant foxtail; [9]): 90; Plant response rating, Pigweed (pigweed [1]; [8]): 10; Plant response rating, Pigweed (pigweed [1]; [9]): 0; Plant response rating, Corn (corn; [7]): 0; Plant response rating, Corn (corn; [8]): 0; Plant response rating, Corn (corn; [9]): 0 |
| O=C1NCC(c2cccc(C(F)F)c2)C1C(=O)Nc1ccccc1F (racemic) [Compound 210] | – | – | – | – | – | – | – | – | – | – | – | – | Plant response rating, Foxtail, Giant (giant foxtail; [10]): 80; Plant response rating, Foxtail, Giant (giant foxtail; [11]): 50; Foxtail, Giant plant response rating (0 to 100 scale, 0 is no effect, 100 is complete control) (giant foxtail; Postemergence, 500 g ai/ha): 90; Plant response rating, Foxtail, Giant (giant foxtail; [12]): 90; Plant response rating, Pigweed (pigweed [1]; [10]): 0; Plant response rating, Pigweed (pigweed [1]; [11]): 0; Pigweed plant response rating (0 to 100 scale, 0 is no effect, 100 is complete control) (pigweed [1]; Postemergence, 500 g ai/ha): 20; Plant response rating, Pigweed (pigweed [1]; [12]): 50; Plant response rating, Corn (corn; [11]): 0; Corn plant response rating (0 to 100 scale, 0 is no effect, 100 is complete control) (corn; Postemergence, 500 g ai/ha): 60 |
